Assay results as given in patent US20130189764A1, “SELECTIVE GROWTH MEDIA” (Oxide Limited, priority 2000, published 2013).
In brackets after ≈: the same amount, converted by molar mass.

Tests used:
[1] = system: S. indiana OCC 2412 and S. worthington OCC 634; experiment: Bioscreen growth in Lab-Lemco broth (Example 11), Salmonella strains; type: cell-based; conditions: 64 μg/ml, Lab-Lemco broth pH 5.7, 37° C.
Experimental: (§1) Thus, Ala-AEP was dissolved in deionised water (7.0 mg/ml), filter sterilised, and an amount of the solution added to autoclaved Lab-Lemco broth (20 g/l; pH 5.7) to give a concentration of 70 μg/ml. Volumes (300 μl) of this solution were then pipetted into the wells of Bioscreen microtitre plates and 30 μl quantities of 1 in 10,000 dilutions of overnight cultures added (reducing the final alaphosphin concentration to 64 μg/m). Plates were then covered, incubated at 37° C., and the opacity of the organism suspensions measured using a Bioscreen instrument. Growth of the Salmonella strains was unaffected whereas the E. coli strains were all inhibited.
(§2) Typical results are shown in FIG. 16, which is a graph of Optical Density against time (hours). Growth of S. indiana OCC 2412 and S. worthington OCC 634 is denoted by crosses and circles respectively.

[2] = system: E. coli strains; experiment: inhibition of E. coli strains on DMSal agar for selective growth of Salmonella (Example 16); type: cell-based, Escherichia coli; conditions: DMSal agar
Experimental: The experiments were conducted as follows: nutrient agar medium was autoclaved and, on cooling (but prior to setting) filter-sterilised alaphosphin or AEP were incorporated at final concentrations of 1 mM, 2 mM, 5 mM and 10 mM, and the medium used to pour plates. Control plates were prepared using nutrient agar without alaphosphin or AEP. A single colony of the organism under test was inoculated in 10 ml of nutrient broth and incubated (without agitation) at 37° C. for 4 hours.
Trp-AEP was compared to alaphosphin (Ala-AEP) for selective growth of Salmonella strains on DMSal agar.

[3] = system: E. coli 607; experiment: MIC in DMSal medium (Example 17); type: cell-based; conditions: Escherichia coli, 607
[4] = system: Salmonella typhimurium OCC 722; experiment: Bioscreen growth, comparison with conventional selective agents (Example 12); type: cell-based; conditions: 60 μg/ml alaphosphin, Lab-Lemco broth + phosphate buffer pH 6.0
Experimental: (§3) The following is an example to illustrate the beneficial lower toxic properties of the new selective agents towards the target microorganism, in this case Salmonella. Two selective agents, cefsulodin and novobiocin, as used conventionally in Salmonella isolation from foods (Humphrey and Whitehead, 1992 British Poultry Science 33, 761-768) were compared with alaphosphin. All were dissolved in deionised water, filter sterilised, and an amount of the solution added to either autoclaved Lab-Lemco broth+phosphate buffer (20 g/l; pH 6.0; ala-AEP) or Buffered Peptone Water (pH 6.8; cefsulodin and novobiocin) to give final concentrations of 66, 16.5 and 11 μg/ml respectively. [The different pH values reflect the different pH optima of the selective agents (ala-AEP was also subsequently used in BPW at pH 6.8 and similar results obtained)]. Volumes (300 μl) were then pipetted into the wells of Bioscreen microtitre plates and 30 μl quantities of 1 in 10,000 dilutions of overnight cultures of E. coli OCC 2129 and Salmonella typhimurium OCC 722, added. Plates were then covered, incubated at 37° C., and the opacity of the organism suspensions measured using a Bioscreen instrument.
(§4) Typical results are shown in FIGS. 17-19, which are graphs of optical density against time for S. typhimurium (circles) and E. coli (squares) in the presence (empty symbols) or absence (filled symbols) of 15 μg/ml cefsulodin (FIG. 17), 10 μg/ml novobiocin (FIG. 18) or 60 μg/ml alaphosphin (FIG. 19).

[5] = system: Enterococcus faecalis 581; experiment: MIC in DMSal medium (Example 17); type: cell-based; conditions: Enterococcus faecalis, 581
Description: (§5) Isoleucyl-AEP and sarcosyl-alanyl-AEP were compared to ala-AEP (all in DMSal medium) for the ability to selectively recover two clinically important pathogenic bacteria: Salmonella and Staphylococcus aureus.

[6] = system: S. aureus 198; experiment: MIC in DMSal medium (Example 17); type: cell-based; conditions: Staphylococcus aureus, 198
Description: as §5

[7] = system: S. aureus ss aureus 2355; experiment: MIC in DMSal medium (Example 17); type: cell-based; conditions: Staphylococcus aureus
Description: as §5

[8] = system: S. aureus (MRSA) 934; experiment: MIC in DMSal medium (Example 17); type: cell-based; conditions: Staphylococcus aureus, MRSA
Description: as §5

[9] = system: Enterococcus faecalis 640; experiment: MIC in DMSal medium (Example 17); type: cell-based; conditions: Enterococcus faecalis, 640
[10] = system: Staphylococcus aureus OCC 102; experiment: growth on nutrient agar streak plates, pure culture (Example 5); type: cell-based; conditions: S. aureus OCC 102, nutrient agar, 0-10 mM tested
Description: Example 1 was repeated using Staphylococcus aureus OCC 102 as the test organism.

[11] = system: E. coli OCC 2129; experiment: Bioscreen growth, comparison with conventional selective agents (Example 12); type: cell-based, Escherichia coli; conditions: 60 μg/ml alaphosphin
Experimental: as §3, §4

[12] = system: strains of Escherichia coli; experiment: Bioscreen growth in Lab-Lemco broth (Example 11), E. coli strains; type: cell-based; conditions: 64 μg/ml, Lab-Lemco broth pH 5.7, 37° C., four E. coli strains
Experimental: as §1, §2

[13] = system: K. pneumoniae CMCC 3077; experiment: growth on nutrient agar, mixed culture with S. aureus (Example 6); type: cell-based, Klebsiella pneumoniae; conditions: K. pneumoniae in mixed culture with S. aureus
Description: Example 1 was repeated, this time using a mixed culture of K. pneumoniae CMCC 3077 and S. aureus OCC 102. The results for growth in the presence of AEP or alaphosphin are shown in FIGS. 7 and 8 respectively: empty columns represent growth of S. aureus, the shaded columns represent growth of K. pneumoniae. […] Accordingly, there is a considerable alaphosphin concentration range over which S. aureus will readily grow whilst K. pneumoniae will be inhibited. Even if K. pneumoniae cells lyse due to the toxic effect of AEP released intracellularly, the AEP is not toxic for S. aureus at the concentrations involved.

[14] = system: K. pneumoniae CMCC 3077; experiment: growth on nutrient agar, mixed culture with B. subtilis (Example 8); type: cell-based, Klebsiella pneumoniae; conditions: K. pneumoniae in mixed culture with B. subtilis, nutrient agar
Description: (§6) Example 6 was repeated, this time using a mixed culture of B. subtilis OCC 214 and K. pneumoniae CMCC 3077, in the presence of AEP or alaphosphin. The empty columns show the growth of B. subtilis, the shaded columns denote growth of K. pneumoniae.

[15] = system: B. subtilis OCC 214; experiment: growth on nutrient agar, mixed culture with K. pneumoniae (Example 8); type: cell-based, Bacillus subtilis
Description: as §6

[16] = system: Klebsiella pneumoniae CMCC 3077; experiment: growth on nutrient agar streak plates, pure culture (Example 4); type: cell-based; conditions: K. pneumoniae CMCC 3077, nutrient agar, 0-10 mM tested
Description: Example 1 was repeated using Klebsiella pneumoniae CMCC 3077 as the test organism. The results are shown in FIG. 5, and are qualitatively similar to those obtained in example 2.

C[C@H](N)C(=O)N[C@@H](C)P(=O)(O)O [alaphosphin, L-alanyl-L-1-aminoethylphosphonic acid]
growth (optical density) in presence of the agent [1]: unaffected | concentration needed to inhibit the growth of E. coli strains [2]: 1.5 µg/mL | MIC [3]: 0.1 µg/mL (≈ 0.51 µM) | effect on growth of S. typhimurium [4]: no significant difference | MIC [5]: 10 µg/mL (≈ 51 µM) | MIC [6]: 5 µg/mL (≈ 25.5 µM) | MIC [7]: 10 µg/mL (≈ 51 µM) | MIC [8]: 25 µg/mL (≈ 127 µM) | MIC [9]: 10 µg/mL (≈ 51 µM) | concentration at which growth is completely inhibited [10]: 10 mM | growth of E. coli [11]: completely inhibited | growth (optical density) in presence of the agent [12]: all inhibited | concentration at which growth is completely inhibited [13]: above 1 mM | concentration at which growth is completely inhibited [14]: ≥ 2 mM | sensitivity of growth (in words) [15]: insensitive | concentration at which growth is completely inhibited [16]: ≥ 2 mM
